Results taken from the supplement of paper PMC13380429.

Columns and labels:
Caco-2 [1] = experiment: drug sensitivity score (DSS) for viability; higher = more toxic; extreme values may be limits of the assay; conditions: 72 h
U2OS [2] = experiment: as above; conditions: 72 h
HepG2 [3] = experiment: as above; conditions: 72 h
Calu-3 [4] = experiment: as above; conditions: 72 h
Vero E6 [5] = experiment: as above; conditions: 72 h
[6] = test system: A549-ACE2 infected with SARS-CoV-2; experiment: SARS-CoV-2 infection rate relative to DMSO; higher = more infection; conditions: 24 h
U2OS [7] = experiment: relative viability EC50 (midpoint between 100% and the lowest measured viability); higher = less toxic; conditions: 72 h
Vero E6 [8] = experiment: as above; conditions: 72 h
[9] = test system: A549-ACE2 infected with SARS-CoV-2; experiment: cell count relative to DMSO; higher = less toxic; conditions: 24 h
A549-ACE2 [10] = experiment: phospholipidosis EC50; higher = less potent phospholipidosis inducer
Caco-2 [11] = experiment: cell viability relative to DMSO; higher = less toxic; conditions: 72 h
U2OS [12] = experiment: as above; conditions: 72 h
HepG2 [13] = experiment: as above; conditions: 72 h
Calu-3 [14] = experiment: as above; conditions: 72 h
Vero E6 [15] = experiment: as above; conditions: 72 h
[16] = test system: A549-ACE2 infected with SARS-CoV-2; experiment: morphology score (similarity to uninfected cells); higher = more like uninfected cells; conditions: 24 h
A549-ACE2 [17] = experiment: drug-induced phospholipidosis relative to tamoxifen; higher = more phospholipidosis
Caco-2 [18] = experiment: relative viability EC50 (midpoint between 100% and the lowest measured viability); higher = less toxic; conditions: 72 h
HepG2 [19] = experiment: as above; conditions: 72 h
Calu-3 [20] = experiment: as above; conditions: 72 h

CC(C)(C)c1ccc(C(=O)CCCN2CCC(OC(c3ccccc3)c3ccccc3)CC2)cc1 [ebastine]
Conditions	drug sensitivity score	relative viability EC50 [µM]
Caco-2 [1]	1.6	–
Calu-3 [4]	1.9	–
HepG2 [3]	1.5	–
U2OS [2]	0.3	–
U2OS [7]	–	> 10
Vero E6 [5]	0	–
Vero E6 [8]	–	> 10

Conditions	SARS-CoV-2 infection rate [%]	cell count [%]	cell viability [%]	morphology score	phospholipidosis EC50 [µM]
A549-ACE2 [10], 24 h	–	–	–	–	3.13
A549-ACE2 [10], 48 h	–	–	–	–	22.1
A549-ACE2 [10], 72 h	–	–	–	–	17.3
Caco-2 [11], 1 nM	–	–	97.6	–	–
Caco-2 [11], 10 nM	–	–	102	–	–
Caco-2 [11], 100 nM	–	–	104	–	–
Caco-2 [11], 1000 nM	–	–	98.8	–	–
Caco-2 [11], 10000 nM	–	–	68.2	–	–
Calu-3 [14], 1 nM	–	–	96.4	–	–
Calu-3 [14], 10 nM	–	–	95.7	–	–
Calu-3 [14], 100 nM	–	–	106	–	–
Calu-3 [14], 1000 nM	–	–	101	–	–
Calu-3 [14], 10000 nM	–	–	60.2	–	–
HepG2 [13], 1 nM	–	–	89.3	–	–
HepG2 [13], 10 nM	–	–	110	–	–
HepG2 [13], 100 nM	–	–	101	–	–
HepG2 [13], 1000 nM	–	–	108	–	–
HepG2 [13], 10000 nM	–	–	60.5	–	–
U2OS [12], 1 nM	–	–	99	–	–
U2OS [12], 10 nM	–	–	94.6	–	–
U2OS [12], 100 nM	–	–	102	–	–
U2OS [12], 1000 nM	–	–	93.6	–	–
U2OS [12], 10000 nM	–	–	87.9	–	–
Vero E6 [15], 1 nM	–	–	88.3	–	–
Vero E6 [15], 10 nM	–	–	98.7	–	–
Vero E6 [15], 100 nM	–	–	92.1	–	–
Vero E6 [15], 1000 nM	–	–	92	–	–
Vero E6 [15], 10000 nM	–	–	86.8	–	–
[6], 0.3 µM	105	–	–	–	–
[6], 3 µM	44	–	–	–	–
[6], 10 µM	26	–	–	–	–
[6], 30 µM	26	–	–	–	–
[9], 0.3 µM	–	99	–	–	–
[9], 3 µM	–	117	–	–	–
[9], 10 µM	–	111	–	–	–
[9], 30 µM	–	58	–	–	–
[16], 0.3 µM	–	–	–	-0.12	–
[16], 3 µM	–	–	–	0.71	–
[16], 10 µM	–	–	–	0.8	–
[16], 30 µM	–	–	–	0.25	–

drug-induced phospholipidosis [%], A549-ACE2 [17]
Conditions	0.3 µM	0.833333 µM	3.33333 µM	6.66667 µM	10 µM	30 µM
24 h	8.24	11.3	46.9	67.3	73.2	55.4
48 h	5.48	4.12	27.6	52.1	76.4	–
72 h	5.22	0.608	24.1	42.2	62.6	–

COc1ccc2nc3c(c(N)c2c1)CCCC3 [7-methoxytacrine]
Conditions	drug sensitivity score	relative viability EC50 [µM]
Caco-2 [1]	0	–
Caco-2 [18]	–	> 10
Calu-3 [4]	0	–
Calu-3 [20]	–	> 10
HepG2 [3]	2.6	–
HepG2 [19]	–	> 10
U2OS [2]	0	–
U2OS [7]	–	> 10
Vero E6 [5]	0	–
Vero E6 [8]	–	> 10

Conditions	SARS-CoV-2 infection rate, [6] [%]	cell count, [9] [%]	cell viability, Caco-2 [11] [%]	cell viability, Calu-3 [14] [%]	cell viability, HepG2 [13] [%]	cell viability, U2OS [12] [%]	cell viability, Vero E6 [15] [%]	morphology score, [16]
1 nM	–	–	96	93	100	103	102	–
10 nM	–	–	98.2	102	91.4	102	99.8	–
100 nM	–	–	96.2	91.1	92.5	98.5	95.6	–
0.3 µM	102	103	–	–	–	–	–	-0.02
1000 nM	–	–	93.8	97.7	79.3	100	95.4	–
3 µM	81	109	–	–	–	–	–	0.53
10 µM	34	115	–	–	–	–	–	0.82
10000 nM	–	–	92.2	95.5	83.5	95.3	98.9	–
30 µM	17	111	–	–	–	–	–	0.76

drug-induced phospholipidosis [%], A549-ACE2 [17]
Conditions	0.3 µM	0.833333 µM	3.33333 µM	6.66667 µM	10 µM	30 µM
24 h	0.14	-0.76	0.16	7.44	14.2	83.8
48 h	2.14	-1.42	1.92	4.91	9.37	110
72 h	5.21	-1.72	1.16	5.48	11.9	129

O=C(O)c1ccc(N[C@@H]2O[C@H](CO)[C@@H](O)[C@H](O)[C@@H]2O)cc1 [K-MAP]
Conditions	drug sensitivity score	relative viability EC50 [µM]
Caco-2 [1]	0	–
Caco-2 [18]	–	> 10
Calu-3 [4]	0	–
Calu-3 [20]	–	> 10
HepG2 [3]	0	–
HepG2 [19]	–	> 10
U2OS [2]	0	–
U2OS [7]	–	> 10
Vero E6 [5]	0	–
Vero E6 [8]	–	> 10

cell viability [%]
Conditions	Caco-2 [11]	Calu-3 [14]	HepG2 [13]	U2OS [12]	Vero E6 [15]
1 nM	92.7	117	90.8	99.7	94.7
10 nM	93.3	99.5	98.1	95.4	96.7
100 nM	89.5	105	95.4	100	93.2
1000 nM	91	102	97.1	97.7	98.8
10000 nM	95.8	99	97.5	100	109

CCc1cc(O)c(Oc2ccc(C(N)=O)cc2F)cc1F
Conditions	drug sensitivity score	relative viability EC50 [µM]
Caco-2 [1]	0	–
Caco-2 [18]	–	> 10
Calu-3 [4]	0	–
Calu-3 [20]	–	> 10
HepG2 [3]	0	–
HepG2 [19]	–	> 10
U2OS [2]	0	–
U2OS [7]	–	> 10
Vero E6 [5]	0	–
Vero E6 [8]	–	> 10

cell viability [%]
Conditions	Caco-2 [11]	Calu-3 [14]	HepG2 [13]	U2OS [12]	Vero E6 [15]
1 nM	107	106	110	104	102
10 nM	99	97.8	94.1	99.9	98.2
100 nM	104	95.3	93	102	99.8
1000 nM	97.9	98.6	103	102	104
10000 nM	101	89.3	97.4	102	100

COc1cc(N)c(Cl)cc1C(=O)OCCN1CCCCC1
Conditions	drug sensitivity score	relative viability EC50 [µM]
Caco-2 [1]	0	–
Caco-2 [18]	–	> 10
Calu-3 [4]	0	–
Calu-3 [20]	–	> 10
HepG2 [3]	0	–
HepG2 [19]	–	> 10
U2OS [2]	0	–
U2OS [7]	–	> 10
Vero E6 [5]	0	–
Vero E6 [8]	–	> 10

cell viability [%]
Conditions	Caco-2 [11]	Calu-3 [14]	HepG2 [13]	U2OS [12]	Vero E6 [15]
1 nM	88.3	93.8	112	93.9	96.3
10 nM	97.6	108	96.9	99	97.3
100 nM	86	102	106	95.5	98.7
1000 nM	100	103	94.9	100	99.3
10000 nM	110	102	103	108	99.5

CCN[C@H]1C[C@H](C)S(=O)(=O)c2sc(S(N)(=O)=O)cc21 [dorzolamide]
Conditions	drug sensitivity score	relative viability EC50 [µM]
Caco-2 [1]	0	–
Caco-2 [18]	–	> 10
Calu-3 [4]	0	–
Calu-3 [20]	–	> 10
HepG2 [3]	0	–
HepG2 [19]	–	> 10
U2OS [2]	0	–
U2OS [7]	–	> 10
Vero E6 [5]	0	–
Vero E6 [8]	–	> 10

cell viability [%]
Conditions	Caco-2 [11]	Calu-3 [14]	HepG2 [13]	U2OS [12]	Vero E6 [15]
1 nM	101	100	113	95.2	98.5
10 nM	108	100	93.7	100	101
100 nM	84	95.7	104	93.6	92.6
1000 nM	94.7	88.3	94.9	101	98.1
10000 nM	100	98.4	99.4	97.4	91.1
